Laboratory results as given in ChEMBL document CHEMBL5131387, “Discovery and computational studies of 2-phenyl-benzoxazole acetamide derivatives as promising P2Y14R antagonists with anti-gout potential” (Eur J Med Chem, 2022).
The source made the active and inactive calls. The rule behind the calls is not given here.

Columns and labels:
[1] = target: T1, P2Y purinoceptor 14 (Homo sapiens) (UniProt Q15391); experiment: Antagonist activity at human P2Y14R expressed in human HEK293 cells assessed as inhibition of cAMP level at 100 nM incubated for 30 mins by cAMP-glo assay relative to control; type: functional, cell-based
T1 sequence (whole entry): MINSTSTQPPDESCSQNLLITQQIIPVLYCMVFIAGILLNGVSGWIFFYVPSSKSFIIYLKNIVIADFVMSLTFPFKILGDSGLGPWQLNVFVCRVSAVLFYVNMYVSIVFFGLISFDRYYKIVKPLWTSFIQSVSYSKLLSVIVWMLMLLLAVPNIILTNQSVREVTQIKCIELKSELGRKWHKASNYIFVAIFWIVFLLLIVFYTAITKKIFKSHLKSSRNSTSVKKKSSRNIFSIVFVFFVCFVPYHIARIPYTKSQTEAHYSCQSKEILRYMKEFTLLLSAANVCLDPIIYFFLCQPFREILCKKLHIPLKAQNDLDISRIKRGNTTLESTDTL

P2Y purinoceptor 14 = target: T2, P2Y purinoceptor 14 (Homo sapiens, UniProt Q15391); experiment: Antagonist activity at human P2Y14R expressed in human HEK293 cells assessed as inhibition of cAMP level incubated for 30 mins by cAMP-glo assay; type: functional, cell-based
T2 sequence (Q15391 whole entry): T1 sequence (whole entry)

BMDM [2] = experiment: Antiinflammatory activity against MSU-induced C57BL/6 mouse BMDM cells assessed as inhibition of MSU-induced NLRP3 upregulation at 10 uM by measuring fluorescence intensity by immunofluorescence assay; type: functional, cell-based
BMDM [3] = experiment: Antiinflammatory activity against MSU-induced C57BL/6 mouse BMDM cells assessed as inhibition of MSU-induced caspase-1 upregulation at 10 uM measured after 7 days by western blot analysis; type: functional, cell-based
BMDM [4] = experiment: Antiinflammatory activity against MSU-induced C57BL/6 mouse BMDM cells assessed as inhibition of MSU-induced ASC upregulation at 10 uM measured after 7 days by western blot analysis; type: functional, cell-based
Mus musculus [5] = experiment: (§1) Anti-inflammatory activity against air pouch inflammation ICR mouse model assessed as decrease in MSU-induced pyroptosis of air pouch macrophages by measuring early cells at 10 uM injected subcutaneously after 24 hrs of MSU stimulation and measured after 24 hrs by caspase-1/PI staining based flow cytometry (reference value: 13.6 %); type: functional; set-up: scale not given: the % may be the effect or the level left; conditions: route sc
Mus musculus [6] = experiment: as §1, with “necrotic” for “early”, “(Rvb =26.2” for “(reference value: 13.6”; type: functional; set-up: scale not given: the % may be the effect or the level left; conditions: route sc
Mus musculus [7] = experiment: as §1, with “viable” for “early”, “45.5” for “13.6”; type: functional; conditions: route sc
Mus musculus [8] = species: Mus musculus; experiment: Anti-arthritis activity against MSU-induced acute gout arthritis ICR mouse model assessed as reversal of GSDMD-NT upregulation in foot tissue at 10 uM by western blot analysis; type: functional, organism-based
BMDM [9] = experiment: Antiinflammatory activity against MSU-induced C57BL/6 mouse BMDM cells assessed as inhibition of MSU-induced NLRP3 upregulation at 10 uM measured after 7 days by western blot analysis; type: functional, cell-based
BMDM [10] = experiment: Antiinflammatory activity against MSU-induced C57BL/6 mouse BMDM cells assessed as inhibition of MSU-induced GSDMD-NT upregulation at 10 uM measured after 7 days by western blot analysis; type: functional, cell-based
Mus musculus [11] = species: Mus musculus; experiment: Anti-arthritis activity against MSU-induced acute gout arthritis ICR mouse model assessed as reduction in paw swelling at 10 uM measured at 6 to 24 hrs; type: functional, organism-based
Mus musculus [12] = experiment: as §1, with “late” for “early”, “(Rvb =14.7” for “(reference value: 13.6”; type: functional; set-up: scale not given: the % may be the effect or the level left; conditions: route sc
Mus musculus [13] = species: Mus musculus; experiment: Anti-arthritis activity against MSU-induced acute gout arthritis ICR mouse model assessed as inhibition of NLRP3 inflammasome activation in foot tissue at 10 uM by microscopic analysis; type: functional, organism-based
BMDM [14] = experiment: Antiinflammatory activity against MSU-induced C57BL/6 mouse BMDM cells assessed as inhibition of secretion of IL-1beta protein expression in supernatant at 10 uM measured after 7 days by western blot analysis; type: functional, cell-based
BMDM [15] = experiment: Antiinflammatory activity against MSU-induced C57BL/6 mouse BMDM cells assessed as inhibition of MSU-induced ASC upregulation at 10 uM by measuring fluorescence intensity by immunofluorescence assay; type: functional, cell-based

Row | inhibition ([1]; filed as antagonist) [%] | IC50 (P2Y purinoceptor 14) [nM] | SMILES | further results
1 | 85.6 | 8.7 | Cc1ccc(CC(=O)Nc2cccc(-c3nc4ccccc4o3)c2)cc1 | 
2 | 72.6 | 32.9 | O=C(Cc1ccccc1Br)Nc1cccc(-c2nc3cc(Cl)ccc3o2)c1 | 
3 | 68.6 |  | O=C(Cc1ccccc1Cl)Nc1cccc(-c2nc3cc(Cl)ccc3o2)c1 | 
4 | 91 | 4.8 | O=C(Cc1ccc(OC(F)(F)F)cc1)Nc1cccc(-c2nc3ccccc3o2)c1 | 
5 | 81 | 17.1 | COc1ccccc1CC(=O)Nc1cccc(-c2nc3cc(Cl)ccc3o2)c1 | 
6 | 63.3 |  | O=C(Cc1ccc2c(c1)OCO2)Nc1cccc(-c2nc3ccccc3o2)c1 | 
7 | 72.7 | 18.5 | Cc1ccc(CC(=O)Nc2cccc(-c3nc4cc(C)ccc4o3)c2)cc1 | 
8 | 83 | 24.3 | COc1cccc(CC(=O)Nc2cccc(-c3nc4ccccc4o3)c2)c1 | 
9 | 70.5 | 25.4 | O=C(Cc1cccc(Br)c1)Nc1cccc(-c2nc3ccccc3o2)c1 | 
10 | 98 | 2 | COc1ccc(CC(=O)Nc2cccc(-c3nc4ccccc4o3)c2)cc1 | Activity (BMDM [2]): Active; Activity (BMDM [3]): Active; Activity (BMDM [4]): Active; Activity (Mus musculus [5]): 8.73%; Activity (Mus musculus [6]): 15%; Activity (Mus musculus [7]): 68.5%; Activity (Mus musculus [8]): Active; Activity (BMDM [9]): Active; Activity (BMDM [10]): Active; Activity (Mus musculus [11]): Active; Activity (Mus musculus [12]): 7.81%; Activity (Mus musculus [13]): Active; Activity (BMDM [14]): Active; Activity (BMDM [15]): Active
11 | 73.3 | 9.3 | Cc1ccccc1CC(=O)Nc1cccc(-c2nc3ccccc3o2)c1 | 
12 | 83 | 12.2 | COc1ccccc1CC(=O)Nc1cccc(-c2nc3ccccc3o2)c1 | 
13 | 62.2 |  | Cc1ccc2oc(-c3cccc(NC(=O)Cc4cccc(C(F)(F)F)c4)c3)nc2c1 | 
14 | 84.6 | 6.7 | Cc1ccc(CC(=O)Nc2cccc(-c3nc4cc(Cl)ccc4o3)c2)cc1 | 
15 | 74.6 | 13.4 | O=C(Cc1cccc(Cl)c1)Nc1cccc(-c2nc3cc(Cl)ccc3o2)c1 | 
16 | 86 | 12.3 | CCCCOc1ccc(CC(=O)Nc2cccc(-c3nc4ccccc4o3)c2)cc1 | 
17 | 42.1 |  | Cc1ccc2oc(-c3cccc(NC(=O)Cc4ccccc4Br)c3)nc2c1 | 
18 | 82 | 23.8 | COc1cccc(CC(=O)Nc2cccc(-c3nc4cc(Cl)ccc4o3)c2)c1 | 
19 | 44.1 |  | Cc1ccc2oc(-c3cccc(NC(=O)Cc4cccc(Cl)c4)c3)nc2c1 | 
20 | 89 | 9.2 | COc1ccc(CC(=O)Nc2cccc(-c3nc4cc(Cl)ccc4o3)c2)cc1 | 
21 | 68.6 |  | O=C(Cc1ccccc1Br)Nc1cccc(-c2nc3ccccc3o2)c1 | 
22 | 78.5 | 21.8 | Cc1cccc(CC(=O)Nc2cccc(-c3nc4ccccc4o3)c2)c1 | 
23 | 80 | 16.2 | O=C(Cc1cccc(OC(F)(F)F)c1)Nc1cccc(-c2nc3ccccc3o2)c1 | 
24 | 67.2 |  | O=C(Cc1ccccc1Cl)Nc1cccc(-c2nc3ccccc3o2)c1 | 
25 | 68 |  | CC(C)(C)c1ccc(CC(=O)Nc2cccc(-c3nc4ccccc4o3)c2)cc1 | 
26 | 83.6 | 11.5 | O=C(Cc1ccc(C(F)(F)F)cc1)Nc1cccc(-c2nc3ccccc3o2)c1 | 

Further lines, the molecule ahead of its results:

Row | SMILES | inhibition ([1]; filed as antagonist) [%] | IC50 (P2Y purinoceptor 14) [nM] | further results
27 | O=C(Cc1ccc(Br)cc1)Nc1ccc(-c2cc3ccccc3o2)cc1 | 47 |  | 
28 | O=C(Cc1ccc2c(c1)OCO2)Nc1cccc(-c2nc3cc(Cl)ccc3o2)c1 | 46.7 |  | 
29 | O=C(Cc1cccc(OC(F)(F)F)c1)Nc1cccc(-c2nc3cc(Cl)ccc3o2)c1 | 84 | 12.6 | 
30 | Cc1cccc(CC(=O)Nc2cc(C)cc(-c3nc4cc(Cl)ccc4o3)c2)c1 | 86.9 | 9.7 | 
31 | O=C(Cc1ccc(OC(F)(F)F)cc1)Nc1cccc(-c2nc3cc(Cl)ccc3o2)c1 | 88 | 9.8 | 
32 | COc1ccc(CC(=O)Nc2ccc(-c3cc4ccccc4o3)cc2)cc1 | 75 |  | 
33 | O=C(Cc1cccc(C(F)(F)F)c1)Nc1cccc(-c2nc3cc(Cl)ccc3o2)c1 | 79.7 | 27.5 | 
34 | O=C(Cc1cccs1)Nc1ccc(-c2cc3ccccc3o2)cc1 | 45 |  | 
35 | Cc1ccc2oc(-c3cccc(NC(=O)Cc4ccc(C(F)(F)F)cc4)c3)nc2c1 | 71.3 | 35.1 | 
36 | O=C(Cc1ccc(Cl)cc1)Nc1ccc(-c2cc3ccccc3o2)cc1 | 51 |  | 
37 | O=C(CC1CCOCC1)Nc1ccc(-c2cc3ccccc3o2)cc1 |  |  | inhibition [1]: 36%
38 | O=C(Cc1ccc2c(c1)OCO2)Nc1ccc(-c2cc3ccccc3o2)cc1 | 47 |  | 
39 | CC(C)(C)c1ccc(CC(=O)Nc2ccc(-c3cc4ccccc4o3)cc2)cc1 |  |  | inhibition [1]: 33%
40 | CCCCOc1ccc(CC(=O)Nc2cccc(-c3nc4cc(Cl)ccc4o3)c2)cc1 | 68 |  | 
41 | CCCCOc1ccc(CC(=O)Nc2ccc(-c3cc4ccccc4o3)cc2)cc1 | 61 |  | 
42 | O=C(Cc1ccc(C(F)(F)F)cc1)Nc1ccc(-c2cc3ccccc3o2)cc1 | 57 |  | 
43 | Cc1ccc(CC(=O)Nc2ccc(-c3cc4ccccc4o3)cc2)cc1 | 72 | 42.4 | 
44 | O=C(O)c1cc(-c2ccc(C3CCNCC3)cc2)c2ccc(-c3ccc(C(F)(F)F)cc3)cc2c1 [PPTN] |  |  | Activity (BMDM [2]): Active; Activity (BMDM [3]): Active; Activity (BMDM [4]): Active; Activity (Mus musculus [5]): 15.4%; Activity (Mus musculus [6]): 18.8%; Activity (Mus musculus [7]): 60%; Activity (Mus musculus [8]): Active; Activity (BMDM [9]): Active; Activity (BMDM [10]): Active; Activity (Mus musculus [11]): Active; Activity (Mus musculus [12]): 6.81%; Activity (Mus musculus [13]): Active; Activity (BMDM [14]): Active; Activity (BMDM [15]): Active
45 | Cc1ccc2oc(-c3cccc(NC(=O)Cc4ccc5c(c4)OCO5)c3)nc2c1 | 55.1 |  | 
46 | O=C(Cc1ccc(C(F)(F)F)cc1)Nc1cccc(-c2nc3cc(Cl)ccc3o2)c1 | 85.5 | 6.1 | 
47 | CC(C)(C)c1ccc(CC(=O)Nc2cccc(-c3nc4cc(Cl)ccc4o3)c2)cc1 | 57 |  | 
